# Results as given in article PMC5785446 (Alcoholism, clinical and experimental research, 2018).
# Key:
# [1] = molecular target: human MOP receptor (Homo sapiens, UniProt P35372); assay type: biochemical
# [2] = test system: C57BL/6J mice; conditions: mouse, in vivo
# [3] = test system: wild-type mice; conditions: mouse, in vivo
# human MOP receptor, sequence (P35372 whole entry): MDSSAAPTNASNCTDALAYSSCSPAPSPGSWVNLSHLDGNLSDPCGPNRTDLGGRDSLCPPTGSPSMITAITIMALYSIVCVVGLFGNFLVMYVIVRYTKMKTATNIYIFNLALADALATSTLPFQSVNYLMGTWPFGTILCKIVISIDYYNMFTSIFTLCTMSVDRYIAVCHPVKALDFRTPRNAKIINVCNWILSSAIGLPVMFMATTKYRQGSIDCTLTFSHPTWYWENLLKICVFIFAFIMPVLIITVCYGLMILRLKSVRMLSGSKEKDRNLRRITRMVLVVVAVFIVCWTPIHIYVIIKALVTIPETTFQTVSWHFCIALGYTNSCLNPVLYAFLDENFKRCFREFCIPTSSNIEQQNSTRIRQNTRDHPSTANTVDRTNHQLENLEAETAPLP
Compound,[35S]GTPγS MOP % Stim [1] [%],effect on ethanol-induced CPP [2],motor sedative effect on conditioning days [3]
C[C@@H](NC(=O)[C@@H](N)Cc1ccc(O)cc1)C(=O)NCC(=O)N(C)[C@@H](Cc1ccccc1)C(=O)NCCO [DAMGO],100,,
CCCC(C)C1(CC)C(=O)NC(=O)NC1=O (stereo not drawn) [pentobarbital],,did not alter the rewarding action of ethanol,robust motor sedative effect
